One data set deals with 13 clinical VZV strains. The following applies: mean of 13 clinical VZV strains, in vitro; cited from earlier work.
Data set [1] relates to 23 clinical HSV-1 strains. Particulars: mean of 23 clinical HSV-1 strains, in vitro; cited from earlier work.
The nature of data set [2]: photodegradation according to ICH guideline CPMP/ICH/279/95. In kind it is physicochemical. The following applies: unpacked samples without stabilizer, 9.6 hours at 49.5 W/m^2 (dose 475 Wh/m^2). From the text: The degradation of brivudine was investigated according to the ICH (International Conference on Harmonization) guideline CPMP/ICH/279/95. […] The brivudine content decreases from about 100% to about 70% after irradiation. At the same time the samples show an increase of known and unknown impurities of about 30%.

Data set [3] in a line: photo-stabilization test of cream, UV-lamp irradiation. In kind it is physicochemical. The following applies: 2 hours UV-lamp. The procedure: Studies of photo-stabilization were conducted encapsulating the active ingredient in cyclodextrin-complexes (e.g. α-, β-, γ-cyclodextrin-complexes) or adding different stabilizers. Known photo-stabilizers like anti-oxidants (e.g. propylgallate, alfa-liponic acid), chemical UV-filters (e.g. octyl triazone) and pigments (titanium dioxide, zinc oxid, iron oxid yellow) were used. The efficiency of photo-stabilization was tested by determination of the content of brivudine after 2 hours of irradiation with UV-lamp (dose of 1 MED [Minimal […] dose, 24.8 Wh/m^2, UVA-light]. UVA-light was applied directly to the cream without primary packaging The higher the content of unchanged brivudine after irradiation, the better the photo-stability. […] The pigment iron oxide yellow at a concentration 20% w/w also gave about 85% brivudine content.

Data set [4] has as its system 20 clinical isolates (HSV-1). The following applies: two similar assays, one value per assay; cited from earlier work.

Structures are written as SMILES. Where “and” joins values, the source holds several entries; their conditions need not be identical. Identical values can stand only once.

With `Nc1nc2c(ncn2COCCO)c(=O)[nH]1` [acyclovir], in the data set with 13 clinical VZV strains, the “mean IC50 in 13 clinical VZV strains” value is 0.2 µg/mL. Besides, the “mean IC50 in a panel of 23 clinical HSV-1 strains” value in data set [1] is 0.92 µg/mL.
In the case of `O=c1[nH]c(=O)n([C@H]2C[C@H](O)[C@@H](CO)O2)cc1/C=C/Br` [brivudine, (E)-5-(2-bromovinyl)-2′-deoxyuridine], the “increase of known and unknown impurities” value in data set [2] was “about 30%”. The “brivudine content after irradiation” value in data set [2] (from about 100%) is reported as “about 70%”; in data set [3] (iron oxide yellow 20% w/w, 1 MED), “about 85%”. The “brivudine final content after irradiation” value in data set [3] (titanium dioxide 20% w/w, 1 MED) was “about 85%”. In addition, in data set [3] (without photo-stabilizer, 5% w/w brivudine cream, 1 MED (24.8 Wh/m^2, UVA)), the “brivudine content after irradiation, % of the initial concentration” value is “about 40%”. Besides, in the data set with 13 clinical VZV strains, the “mean IC50 in 13 clinical VZV strains” value was 0.001 µg/mL. In addition, the “mean IC50 in a panel of 23 clinical HSV-1 strains” value in data set [1] was 0.52 µg/mL.
Consider `Nc1nc2c(ncn2CCC(CO)CO)c(=O)[nH]1` [penciclovir], for which, in the data set with 13 clinical VZV strains, the “mean IC50 in 13 clinical VZV strains” value was 0.91 µg/mL. Moreover, the “mean IC50 in a panel of 20 clinical isolates” value in data set [4] was 0.6 µg/mL and 0.8 µg/mL.

(Values after patent publication US20040087602A1, “Stabilized brivudine topical formulations” (priority 2001, published 2004).)
